Source: patent US8063103B2, “Polymorphs of acyl sulfonamides” (Roche Palo Alto LLC, priority 2008, dated 2011)
Counter-ions that a name gives are not always drawn. Like-named read-outs stand apart in the source and are kept apart here.

Protocol: Amorphous state of Ib can be prepared by dissolving Form VIII in 82% t-butanol/18% water at a drug concentration of ˜6 mg/mL. This solution was lyophilized overnight (˜18 hours) to form the amorphous material.

Compound: CCC(=O)NS(=O)(=O)c1ccc(NC(=O)Cc2ccc(Br)c(Oc3cc(Cl)cc(C#N)c3)c2F)c(Cl)c1 [amorphous material, 2-[4-Bromo-3-(3-chloro-5-cyano-phenoxy)-2-fluoro-phenyl]-N-(2-chloro-4-propionylsulfamoyl-phenyl)-acetamide, sodium salt]
- stability of amorphous material on storage (25C/60 RH, at least one week): stable at 25C/60 RH for at least one week
- stability of amorphous material on storage (40C/75 RH): not at 40C/75 RH
